Literature values, collected in patent publication US7265142B2, “Materials and methods for the treatment of hypertension and angina” (ARYx Therapeutics, priority 2001, dated 2007).

Details: background statement; patients switched from mibefradil to dihydropyridine CCBs

Structure (SMILES): COCC(=O)O[C@]1(CCN(C)CCCc2nc3ccccc3[nH]2)CCc2cc(F)ccc2[C@@H]1C(C)C [mibefradil]
- half-life: up to 24 hours
